“And” between values parts separate entries of the source, which are not always exact repeats. Identical values can stand only once.
Assays:
[1] = Molar enthalpy of transition or fusion; conditions: Crystal; DSC
[2] = Crystal; for vapor or sublimation pressure: Calculated from knudsen effusion weight loss; for Normal melting temperature: DTA

O=C(O)Cc1ccccc1Cl [(2-chlorophenyl)ethanoic acid]
Conditions	Molar enthalpy of transition or fusion [kJ/mol]	Normal melting temperature [°C]
[1]	24.3	–
[2]	–	94.24

[2]
Conditions	vapor or sublimation pressure
322.2 K	0.000151 kPa and 0.000153 kPa and 0.000152 kPa
324.14 K	0.000196 kPa and 0.000198 kPa and 0.000197 kPa
326.11 K	0.00025 kPa and 0.000251 kPa and 0.000255 kPa
328.2 K	0.000315 kPa and 0.00032 kPa and 0.000316 kPa
330.13 K	0.000401 kPa and 0.000406 kPa and 0.000402 kPa
332.19 K	0.000518 kPa and 0.000512 kPa
334.12 K	0.00065 kPa and 0.000639 kPa
336.11 K	0.000837 kPa and 0.000813 kPa and 0.000829 kPa
338.11 K	0.00105 kPa and 0.00103 kPa

O=C(O)Cc1cccc(Cl)c1 [(3-chlorophenyl)ethanoic acid]
Conditions	Molar enthalpy of transition or fusion [kJ/mol]	Normal melting temperature [°C]
[1]	22.6	–
[2]	–	76.63

[2]
Conditions	vapor or sublimation pressure
319.2 K	0.000131 kPa and 0.000132 kPa and 0.000133 kPa
321.13 K	0.000172 kPa and 0.000174 kPa
323.11 K	0.000226 kPa and 0.000216 kPa and 0.000224 kPa
325.2 K	0.000281 kPa and 0.000279 kPa
327.12 K	0.000356 kPa and 0.00036 kPa
329.11 K	0.000468 kPa and 0.000453 kPa and 0.00046 kPa
331.19 K	0.000576 kPa and 0.000578 kPa and 0.000567 kPa
333.11 K	0.000733 kPa and 0.000713 kPa
335.11 K	0.00092 kPa

O=C(O)Cc1ccc(Cl)cc1 [(4-chlorophenyl)ethanoic acid]
Conditions	Molar enthalpy of transition or fusion [kJ/mol]	Normal melting temperature [°C]
[1]	23.6	–
[2]	–	104.8

[2]
Conditions	vapor or sublimation pressure
325.2 K	0.000154 kPa and 0.000156 kPa and 0.000153 kPa
327.15 K	0.000194 kPa and 0.000199 kPa and 0.000197 kPa
329.12 K	0.000252 kPa and 0.00025 kPa
331.19 K	0.000318 kPa and 0.000312 kPa
333.14 K	0.000401 kPa and 0.000398 kPa and 0.000394 kPa
335.12 K	0.000506 kPa and 0.000502 kPa
337.2 K	0.000631 kPa and 0.000634 kPa
339.13 K	0.000788 kPa and 0.000793 kPa and 0.000775 kPa
341.11 K	0.001 kPa and 0.00099 kPa and 0.00098 kPa
